Ki data for 23 compounds are collected here from US20250213735A1, “NEUROPEPTIDE Y1 RECEPTOR (NPY1R) TARGETED THERAPEUTICS AND USES THEREOF” (Radionetics Oncology, Inc., priority 2023, published 2025).

Molecules are shown by their SMILES. Bounds are passed on as bounds.

Chain of hNPY1R (P25929 whole entry): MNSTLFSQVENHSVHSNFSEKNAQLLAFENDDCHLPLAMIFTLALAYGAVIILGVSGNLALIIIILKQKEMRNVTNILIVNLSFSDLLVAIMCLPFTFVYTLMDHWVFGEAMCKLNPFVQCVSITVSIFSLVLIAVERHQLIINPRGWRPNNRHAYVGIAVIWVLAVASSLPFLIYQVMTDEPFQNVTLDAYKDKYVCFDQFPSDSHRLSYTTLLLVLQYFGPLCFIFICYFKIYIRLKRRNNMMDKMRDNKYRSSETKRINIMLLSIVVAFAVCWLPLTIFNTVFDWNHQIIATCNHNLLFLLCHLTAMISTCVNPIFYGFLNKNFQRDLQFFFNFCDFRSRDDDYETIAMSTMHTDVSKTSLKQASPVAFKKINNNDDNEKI

One assay has as its target hNPY1R (Homo sapiens (Human), UniProt P25929). Nature of the assay: NPY1R binding assay (SK-N-MC membrane, [125I]-Peptide YY competition).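 Also: bound radioligand separated by filtration over GF/C filter plates and counted, Ki obtained by non-linear regression.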
Details: not given
For `CCC(=O)NCCNC(=O)/N=C(/N)NCCC[C@@H](NC(=O)[C@H](c1ccc(OCCCNC(=O)CCCCCNC(=O)CN2CCN3CCN4CCN(CC2)CC(=O)[O][Ga]([O]C(=O)C3)[O]C(=O)C4)cc1)N1Cc2ccccc2C1)C(=O)NCc1ccc(O)cc1` [1A-Ga, Gallium (III) 2,2′,2″-(10-(2-((6-((3-(4-((1S,4R,Z)-9-amino-4-((4-hydroxybenzyl)carbamoyl)-1-(isoindolin-2-yl)-2,11,16-trioxo-3,8,10,12,15-pentaazaoctadec-9-en-1-yl)phenoxy)propyl)amino)-6-oxohexyl)amino)-2-oxoethyl)-1,4,7,10-tetraazacyclododecane-1,4,7-triyl)triacetate], the Ki was below 10 nM.

Staying with this assay, now noted: crude SK-N-MC membranes endogenously expressing NPY1R; [125I]-Peptide YY (human) 0.05 nM; 120 min at room temperature; read-out: hNPY1R binding Ki.
Turning to `CCC(=O)NCCNC(=O)/N=C(/N)NCCC[C@@H](NC(=O)[C@H](c1ccc(CCCOCCOCCNC(=O)CN2CCN(CC(=O)O)CCN(CC(=O)O)CCN(CC(=O)O)CC2)cc1)N1Cc2ccccc2C1)C(=O)NCc1c(F)cc(O)cc1F` (single isomer, unassigned) [8A], the Ki was below 10 nM.
Same read-out and setting: then `CCC(=O)NCCNC(=O)/N=C(/N)NCCC[C@@H](NC(=O)[C@@H](c1ccc(CCCOCCOCCNC(=O)CN2CCN(CC(=O)O)CCN(CC(=O)O)CCN(CC(=O)O)CC2)cc1)N1Cc2ccccc2C1)C(=O)NCc1c(F)cc(O)cc1F` (single isomer, unassigned) [8B], with 10 to 100 nM; and `CCC(=O)NCCNC(=O)/N=C(/N)NCCC[C@@H](NC(=O)[C@H](c1cccc(NC(=O)CCCNc2c(NCCCCCCNC(=O)CN3CCN(CC(=O)O)CCN(CC(=O)O)CCN(CC(=O)O)CC3)c(=O)c2=O)c1)N1Cc2ccccc2C1)C(=O)NCc1c(F)cc(O)cc1F` (single isomer, unassigned) [31A], with below 10 nM.
On the same count and under the same terms, the figure for `CCC(=O)NCCNC(=O)/N=C(/N)NCCC[C@@H](NC(=O)[C@@H](c1cccc(NC(=O)CCCNc2c(NCCCCCCNC(=O)CN3CCN(CC(=O)O)CCN(CC(=O)O)CCN(CC(=O)O)CC3)c(=O)c2=O)c1)N1Cc2ccccc2C1)C(=O)NCc1c(F)cc(O)cc1F` (single isomer, unassigned) [31B] is below 10 nM.
`CCC(=O)NCCNC(=O)/N=C(/N)NCCC[C@@H](NC(=O)C(c1cccc(NC(=O)CCCNC(=O)[C@@H](CO)NC(=O)CCNC(=O)CN2CCN(CC(=O)O)CCN(CC(=O)O)CCN(CC(=O)O)CC2)c1)N1Cc2ccccc2C1)C(=O)NCc1c(F)cc(O)cc1F` (single isomer, unassigned) [32A]: the Ki is below 10 nM.
The same measure, in the same setting: the figure for `CCC(=O)NCCNC(=O)/N=C(/N)NCCC[C@@H](NC(=O)C(c1ccc(OCCCN)cc1)N1Cc2ccccc2C1)C(=O)NCc1c(F)cc(O)cc1F` (stereo in doubt) [compound 62, (R)-2-((S)-2-(4-(3-aminopropoxy)phenyl)-2-(isoindolin-2-yl)acetamido)-N-(2,6-difluoro-4-hydroxybenzyl)-5-((Z)-2-((2-propionamidoethyl)carbamoyl)guanidino)pentanamide] is below 10 nM; for `CCC(=O)NCCNC(=O)/N=C(/N)NCCC[C@@H](NC(=O)[C@H](c1ccc(OCCCNC(=O)CCCCCNC(=O)CN2CCN(CC(=O)O)CCN(CC(=O)O)CCN(CC(=O)O)CC2)cc1)N1Cc2ccccc2C1)C(=O)NCc1ccc(O)cc1` [1A, 2,2′,2″-(10-(2-((6-((3-(4-((1S,4R,Z)-9-amino-4-((4-hydroxybenzyl)carbamoyl)-1-(isoindolin-2-yl)-2,11,16-trioxo-3,8,10,12,15-pentaazaoctadec-9-en-1-yl)phenoxy)propyl)amino)-6-oxohexyl)amino)-2-oxoethyl)-1,4,7,10-tetraazacyclododecane-1,4,7-triyl)triacetic acid] it is below 10 nM.
`CCC(=O)NCCNC(=O)/N=C(/N)NCCC[C@@H](NC(=O)[C@@H](c1ccc(OCCCNC(=O)CCCCCNC(=O)CN2CCN(CC(=O)O)CCN(CC(=O)O)CCN(CC(=O)O)CC2)cc1)N1Cc2ccccc2C1)C(=O)NCc1ccc(O)cc1` [1B, 2,2′,2″-(10-(2-((6-((3-(4-((1R,4R,Z)-9-amino-4-((4-hydroxybenzyl)carbamoyl)-1-(isoindolin-2-yl)-2,11,16-trioxo-3,8,10,12,15-pentaazaoctadec-9-en-1-yl)phenoxy)propyl)-amino)-6-oxohexyl)amino)-2-oxoethyl)-1,4,7,10-tetraazacyclododecane-1,4,7-triyl)triacetic acid-2,2,2-trifluoroacetic acid (1/1)]: the Ki fell in the range of 100 to 1000 nM.
As for `CCC(=O)NCCNC(=O)/N=C(/N)NCCC[C@@H](NC(=O)[C@H](c1cccc(NC(=O)CCCNC(=O)CCCCCNC(=O)CN2CCN(CC(=O)O)CCN(CC(=O)O)CCN(CC(=O)O)CC2)c1)N1Cc2ccccc2C1)C(=O)NCc1ccc(O)cc1` [3A, 2,2′,2″-(10-(2-((6-((4-((3-((1S,4R,Z)-9-amino-4-((4-hydroxybenzyl)carbamoyl)-1-(isoindolin-2-yl)-2,11,16-trioxo-3,8,10,12,15-pentaazaoctadec-9-en-1-yl)phenyl)amino)-4-oxobutyl)amino)-6-oxohexyl)amino)-2-oxoethyl)-1,4,7,10-tetraazacyclododecane-1,4,7-triyl)triacetic acid-2,2,2-trifluoroacetic acid (1/1)], the Ki is below 10 nM.
Consider `CCC(=O)NCCNC(=O)/N=C(/N)NCCC[C@@H](NC(=O)[C@@H](c1cccc(NC(=O)CCCNC(=O)CCCCCNC(=O)CN2CCN(CC(=O)O)CCN(CC(=O)O)CCN(CC(=O)O)CC2)c1)N1Cc2ccccc2C1)C(=O)NCc1ccc(O)cc1` [3B, 2,2′,2″-(10-(2-((6-((4-((3-((1R,4R,Z)-9-amino-4-((4-hydroxybenzyl)carbamoyl)-1-(isoindolin-2-yl)-2,11,16-trioxo-3,8,10,12,15-pentaazaoctadec-9-en-1-yl)phenyl)amino)-4-oxobutyl)amino)-6-oxohexyl)amino)-2-oxoethyl)-1,4,7,10-tetraazacyclododecane-1,4,7-triyl)triacetic acid], for which the Ki was below 10 nM.
Take `CCC(=O)NCCNC(=O)/N=C(/N)NCCC[C@@H](NC(=O)[C@H](c1ccccc1)N1Cc2ccccc2C1)C(=O)NCc1ccc(O)cc1` [60A, (R)—N-(4-hydroxybenzyl)-2-((S)-2-(isoindolin-2-yl)-2-phenylacetamido)-5-((Z)-2-((2-propionamidoethyl)carbamoyl)guanidino)pentanamide]: the Ki is below 10 nM.
Same read-out and setting: the figure for `CCC(=O)NCCNC(=O)/N=C(/N)NCCC[C@@H](NC(=O)[C@@H](c1ccccc1)N1Cc2ccccc2C1)C(=O)NCc1ccc(O)cc1` [60B, (R)—N-(4-hydroxybenzyl)-2-((R)-2-(isoindolin-2-yl)-2-phenylacetamido)-5-((Z)-2-((2-propionamidoethyl)carbamoyl)guanidino)pentanamide] is 10 to 100 nM; for `CCC(=O)NCCNC(=O)/N=C(/N)NCCC[C@@H](NC(=O)[C@H](c1ccccc1)N1Cc2ccccc2C1)C(=O)NCc1c(F)cc(O)cc1F` [61A, (R)—N-(2,6-difluoro-4-hydroxybenzyl)-2-((S)-2-(isoindolin-2-yl)-2-phenylacetamido)-5-((Z)-2-((2-propionamidoethyl)carbamoyl)guanidino)pentanamide] it is below 10 nM.
The same measure, in the same setting: then `CCC(=O)NCCNC(=O)/N=C(/N)NCCC[C@@H](NC(=O)[C@@H](c1ccccc1)N1Cc2ccccc2C1)C(=O)NCc1c(F)cc(O)cc1F` [61B, (R)—N-(2,6-difluoro-4-hydroxybenzyl)-2-((R)-2-(isoindolin-2-yl)-2-phenylacetamido)-5-((Z)-2-((2-propionamidoethyl)carbamoyl)guanidino)pentanamide], with below 10 nM.
Same read-out and setting: then `CCC(=O)NCCNC(=O)/N=C(/N)NCCC[C@@H](NC(=O)[C@H](c1ccc(OCCCN)cc1)N1Cc2ccccc2C1)C(=O)NCc1ccc(O)cc1` [64A, (R)-2-((S)-2-(4-(3-aminopropoxy)phenyl)-2-(isoindolin-2-yl)acetamido)-N-(4-hydroxybenzyl)-5-((Z)-2-((2-propionamidoethyl)carbamoyl)guanidino)pentanamide], with below 10 nM.
As for `CCC(=O)NCCNC(=O)/N=C(/N)NCCC[C@@H](NC(=O)[C@@H](c1ccc(OCCCN)cc1)N1Cc2ccccc2C1)C(=O)NCc1ccc(O)cc1` [64B], the Ki was 10 to 100 nM.
Still for that read-out and setting: then `CCNC(=O)/N=C(/N)NCCC[C@@H](NC(=O)[C@H](c1ccccc1)N1Cc2ccc(NCCCN)cc2C1)C(=O)NCc1c(F)cc(O)cc1F` [65A, (R)-2-((S)-2-(5-((3-aminopropyl)amino)isoindolin-2-yl)-2-phenylacetamido)-N-(2,6-difluoro-4-hydroxybenzyl)-5-((Z)-2-(ethylcarbamoyl)guanidino)pentanamide], with below 10 nM.
Same read-out and setting: then `CCNC(=O)/N=C(/N)NCCC[C@@H](NC(=O)[C@H](c1cccc(NCCCN)c1)N1Cc2ccccc2C1)C(=O)NCc1c(F)cc(O)cc1F` [66A, (R)-2-((S)-2-(3-((3-aminopropyl)amino)phenyl)-2-(isoindolin-2-yl)acetamido)-N-(2,6-difluoro-4-hydroxybenzyl)-5-((Z)-2-(ethylcarbamoyl)guanidino)pentanamide], with below 10 nM; and `CCNC(=O)/N=C(/N)NCCC[C@@H](NC(=O)[C@@H](c1cccc(NCCCN)c1)N1Cc2ccccc2C1)C(=O)NCc1c(F)cc(O)cc1F` [66B, (R)-2-((R)-2-(3-((3-aminopropyl)amino)phenyl)-2-(isoindolin-2-yl)acetamido)-N-(2,6-difluoro-4-hydroxybenzyl)-5-((Z)-2-(ethylcarbamoyl)guanidino)pentanamide], with below 10 nM; and `N=C(N)NCCC[C@@H](NC(=O)[C@H](c1ccccc1)N1Cc2ccccc2C1=O)C(=O)NCc1ccc(O)cc1` [71A, (R)-5-guanidino-N-(4-hydroxybenzyl)-2-((S)-2-(1-oxoisoindolin-2-yl)-2-phenylacetamido)pentanamide], with above 1000 nM.
Same read-out and setting: the figure for `N=C(N)NCCC[C@@H](NC(=O)[C@@H](c1ccccc1)N1Cc2ccccc2C1=O)C(=O)NCc1ccc(O)cc1` [71B, (R)-5-guanidino-N-(4-hydroxybenzyl)-2-((R)-2-(1-oxoisoindolin-2-yl)-2-phenylacetamido)pentanamide] is above 1000 nM; for `CCCC1CCN([C@@H](C(=O)N[C@H](CCCNC(=N)N)C(=O)NCc2ccc(O)cc2)c2ccccc2)CC1` [78A, (R)-5-guanidino-N-(4-hydroxybenzyl)-2-((R)-2-phenyl-2-(4-propylpiperidin-1-yl)acetamido)pentanamide] it is above 1000 nM.
